Results published in patent publication US4933332A, “11-desoxy-17-α-hydroxycorticosterone derivatives” (priority 1988, dated 1990).
Several values for one entry are separate records, joined by “and”; a condition that tells them apart may be missing. Identical values can stand only once.

Tests used:
[1] = tested on: Lung adenocarcinoma RL-67; test: Duration of the antitumor effect, lung adenocarcinoma RL-67; type: in vivo, mice and rats
Text: (§1) For the study of the antitumor activity of the compounds according to the present invention use was made of regrafted hemoblastoses, grafted solid tumors, induced and spontaneous tumors of mice and rats. The following models were used: L 1210, P-388, hemocytoblastosis La, MOPC-406, viral lympholeukosis Mazurenko LMC-1, Ca-755, mammary carcinoma metastasizing into lungs KML, alveolar mammary cancer RMK-1, small intenstine adenocarcinoma AKATON, large intestine adenocarcinoma AKATOL, Lewis lung carcinoma LL, lung adenocarcinoma RL-67, hepatomae G-22c, G-60, G-61, sarcomae S-37 and S-180, DMBA (dimethylbenzanthracene)-induced and spontaneous mammary tumors, and […] (dimethylhydrazine)-induced tumors of the large intestine.
(§2) The studies were carried out on line mice and their first-generation hybrids, as well as on mongrel mice and rats.
(§3) The compounds were administered to the animals hypodermally in kernel oil. For the purpose of comparison, a known hormonocytostatic estracyte (estra-1,3,5-(10)treine-3,17β-diol-3N-[bis-(2-chloroethyl)carbamate-17-sodium phosphate] was used which was administered hypodermally in a solution of a 0.9% NaCl, chlorphenacyl and chloroambucyl which were administered intraperitoneally in a 10% solution of ethanol, sarcolysine (β-[p-di(2-chloroethyl)aminophenyl]-α-alanine hydrochloride)--intraperitoneally in a 0.9% solution of NaCl, prednisolone (pregnadiene-1,4-triol-11β,17α,21-dione-3,20)--per os in a starch size.
(§4) Criteria of the antitumor activity of the compounds according to the present invention are: extension of the lifespan of the animals (ELA, %) and tumor growth inhibition (TGI, %). [formula] T--average lifespan of the treated animals; C--average lifespan of the control animals. [formula] O--average tumor volume in the group of treated animals; K--average tumor volume in the group of control animals.

[2] = tested on: Hepatoma G-60; test: Antitumor effect on grafted hepatoma G-60; type: in vivo, mice and rats; conditions: in vivo
[3] = tested on: L 1210; test: Antitumor effect on grafted hemoblastoses (L 1210), extension of lifespan; type: in vivo, mice and rats; conditions: in vivo, sc
[4] = tested on: Ca-755; test: Antitumor effect on grafted solid tumor Ca-755; type: in vivo, mice and rats; conditions: in vivo
[5] = tested on: Spontaneous mammary tumors of mice; test: Effect on spontaneous breast tumors in repeated treatment courses; type: in vivo
Text: as §1, §3, §4
In the case of using spontaneous or induced tumors, by means of carcinogenic substances, the criteria of the antitumor effect are: TGI, % or decrease in the tumor size, %, as compared to its initial value. The treatment of spontaneous and induced tumors was initiated after achieving, by these tumors, of a particular size excluding the possibility of a spontaneous regression.

[6] = tested on: Small intestine adenocarcinoma AKATON; test: Duration of the antitumor effect, small intestine adenocarcinoma AKATON; type: in vivo, mice and rats
Text: as §1, §2, §3, §4

[7] = tested on: S-180; set-up: species or system mice and rats; conditions: in vivo
[8] = tested on: acceptor regions of chromatin of tumoral and normal cells (kidney tumor PA, normal kidney); test: Penetration into the cell nucleus and interaction with chromatin; set-up: species or system line Wistar; conditions: kidney tumor PA of rats
[9] = tested on: grafted hemoblastoses and solid tumors; test: Antitumor activity, summary over the tumor models; type: in vivo, mice and rats
Text: as §1, §2, §3, §4

[10] = tested on: P-388; test: Antitumor effect on grafted hemoblastoses (P-388), extension of lifespan; type: in vivo, mice and rats; conditions: in vivo
[11] = tested on: Large intestine adenocarcinoma AKATOL; test: Antitumor effect on grafted large intestine adenocarcinoma AKATOL; type: in vivo, mice and rats; conditions: in vivo
[12] = in vivo; conditions: mouse
[13] = tested on: DNA of normal (spleen) cells; test: Regeneration of injured DNA in normal tissue vs tumor tissue; conditions: compared with tumor tissue
[14] = tested on: La; set-up: species or system mice and rats; conditions: in vivo
[15] = tested on: Hepatoma G-22c; test: Antitumor effect on grafted hepatoma G-22c; type: in vivo, mice and rats; conditions: in vivo
[16] = tested on: receptors of glucocorticoids in grafted tumors of animals (RL-67, G-60, G-61, G-22c, Ca-755, S-37, AKATOL, AKATON); test: Inhibition of specific combining of [^3 H]-dexamethazone in grafted tumors of animals; type: binding
Text: The inhibition, thereby, of a specific combining of [^3 H]-dexamethazone in tumors of animals reaches 70-100%. 11-Desoxy-17-α-hydroxy-21-[p-di(2-chloroethyl)aminophenylacetate] corticosterone also reacts with cytoplasmatic receptors of glucocorticoids in tumors in human beings.

[17] = Toxicological study, limiting toxicity
[18] = tested on: Alveolar mammary cancer RMK-1; test: Antitumor effect on grafted alveolar mammary cancer RMK-1; type: in vivo, mice and rats; conditions: in vivo
[19] = tested on: Lewis lung carcinoma LL; test: Antitumor effect on grafted Lewis lung carcinoma LL; type: in vivo, mice and rats; conditions: in vivo
[20] = tested on: Breast carcinoma metastasizing into lungs KML; test: Duration of the antitumor effect, breast carcinoma KML; type: in vivo, mice and rats
Text: as §1, §2, §3, §4

[21] = biological target: T1, cytoplasmatic receptors of glucocorticoids (Homo sapiens, UniProt P04150); test: Interaction with cytoplasmatic receptors of glucocorticoids; type: binding
T1 construct: cytoplasmatic receptors of glucocorticoids
Text: The hormonal effect of 11-desoxy-17α-hydroxy-21-[p-di-(2-chloroethyl)aminophenylacetate] corticosterone is associated with exhibition of a glucocorticoidal activity thereby.

T1 sequence (P04150 whole entry): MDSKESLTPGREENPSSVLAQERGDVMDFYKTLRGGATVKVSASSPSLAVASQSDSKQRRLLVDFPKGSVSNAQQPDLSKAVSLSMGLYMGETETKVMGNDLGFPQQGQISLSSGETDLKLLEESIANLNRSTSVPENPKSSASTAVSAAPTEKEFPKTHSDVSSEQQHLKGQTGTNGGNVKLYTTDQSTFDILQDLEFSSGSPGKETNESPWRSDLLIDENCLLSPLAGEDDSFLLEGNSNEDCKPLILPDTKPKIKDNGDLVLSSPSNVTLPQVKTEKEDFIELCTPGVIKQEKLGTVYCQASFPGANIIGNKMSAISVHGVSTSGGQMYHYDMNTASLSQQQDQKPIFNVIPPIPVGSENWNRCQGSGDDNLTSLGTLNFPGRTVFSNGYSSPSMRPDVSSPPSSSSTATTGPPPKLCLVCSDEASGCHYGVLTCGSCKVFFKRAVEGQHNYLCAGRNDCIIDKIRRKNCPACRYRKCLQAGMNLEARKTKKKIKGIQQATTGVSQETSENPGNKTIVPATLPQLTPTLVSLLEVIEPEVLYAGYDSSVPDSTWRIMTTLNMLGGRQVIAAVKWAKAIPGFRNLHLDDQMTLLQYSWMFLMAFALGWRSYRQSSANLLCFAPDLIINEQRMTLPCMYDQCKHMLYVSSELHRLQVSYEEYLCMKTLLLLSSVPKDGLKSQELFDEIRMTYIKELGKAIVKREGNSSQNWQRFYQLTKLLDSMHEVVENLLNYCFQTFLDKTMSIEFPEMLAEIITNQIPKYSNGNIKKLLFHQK

## C[C@]12CCC(=O)C=C1CC[C@@H]1[C@@H]2CC[C@@]2(C)[C@H]1CC[C@]2(O)C(=O)COC(=O)Cc1ccc(N(CCCl)CCCl)cc1 [11-desoxy-17α-hydroxy-21-[p-di(2-chloroethyl)-aminophenylacetate] corticosterone]
[1]; 45 mg/kg × 1, day 2
  Extension of the lifespan: 27%
[1]; 45 mg/kg × 1, day 2, day 15 of experiment
  Tumor growth inhibition: 81%
[1]; 45 mg/kg × 1, day 2, day 22 of experiment
  Tumor growth inhibition: 82%
[1]; 45 mg/kg × 1, day 2, day 29 of experiment
  Tumor growth inhibition: 80%
[2]
  Maximum tumor growth inhibition: 99%
[3]
  Extension of the lifespan of the animals (ELA): 31%
[4]
  Extension of the lifespan: 73%
  Maximum tumor growth inhibition: 99%
  Tumor growth inhibition: 92% and 73% and 82%
[4]; 45 mg/kg
  Maximum tumor growth inhibition: 94%
[5]; Table 4
  activity in repeated treatment courses: reveals activity in repeated treatment courses
[5]; compared to the size prior to the treatment
  reduction in size of spontaneous tumors in breasts: causes reduction in size of induced and spontaneous tumors
[5]; spontaneous, mice, 15 mg/kg/24 h × 5, 2 courses, 3 weeks interval
  Increased lifespan: 11%
[5]; spontaneous, mice, 15 mg/kg/24 h × 5, 2 courses, 3 weeks interval, week 1
  Decrease or increase (+) of the tumor, % of the initial one: 23%
[5]; spontaneous, mice, 15 mg/kg/24 h × 5, 2 courses, 3 weeks interval, week 2
  Decrease or increase (+) of the tumor, % of the initial one: 37%
[5]; spontaneous, mice, 15 mg/kg/24 h × 5, 2 courses, 3 weeks interval, week 3
  Decrease or increase (+) of the tumor, % of the initial one: +7%
[5]; spontaneous, mice, 15 mg/kg/24 h × 5, 2 courses, 3 weeks interval, week 4
  Decrease or increase (+) of the tumor, % of the initial one: 64%
[5]; spontaneous, mice, 15 mg/kg/24 h × 5, 2 courses, 3 weeks interval, week 5
  Decrease or increase (+) of the tumor, % of the initial one: 20%
[5]; spontaneous, mice, 15 mg/kg/24 h × 5, 2 courses, 3 weeks interval, week 6
  Decrease or increase (+) of the tumor, % of the initial one: 50%
[5]; spontaneous, mice, 15 mg/kg/24 h × 5, 2 courses, 3 weeks interval, week 7
  Decrease or increase (+) of the tumor, % of the initial one: 25%
[5]; spontaneous, mice, 15 mg/kg/24 h × 5, 2 courses, 3 weeks interval, week 8
  Decrease or increase (+) of the tumor, % of the initial one: 16%
[6]; 15 mg/kg/24 h × 5, days 2-6
  Extension of the lifespan: 46%
[6]; 15 mg/kg/24 h × 5, days 2-6, day 15 of experiment
  Tumor growth inhibition: 66%
[6]; 15 mg/kg/24 h × 5, days 2-6, day 22 of experiment
  Tumor growth inhibition: 55%
[6]; 15 mg/kg/24 h × 5, days 2-6, day 29 of experiment
  Tumor growth inhibition: 46%
[7]
  Maximum tumor growth inhibition: 93% and 92%
[8]
  penetration into cell nucleus and interaction with chromatin: penetrates into the cell nucleus and interacts with acceptor regions of chromatin of both tumoral and normal cells
[9]; Table 2 summary, grafted solid tumors
  inhibits growth of substantially all tumors: 80-99%
[9]; Table 3 summary
  duration of tumor growth inhibition after completion of the treatment course: ≥ 1 month
  extension of the lifespan of the animals as compared to the control: 27-73%
[9]; in vivo
  antitumor effect compared with reference agents: considerably superior, as regards its activity on numerous models, over the known alkylating preparation sarcolysine
[10]
  Extension of the lifespan of the animals (ELA): 81%
[11]
  Maximum tumor growth inhibition: 98%
[12]
  LD50: 80 mg/kg
  MTD: 44 mg/kg
[13]
  regeneration of injured DNA in normal tissue: starts earlier than in the tumor tissue
[14]
  Extension of the lifespan of the animals (ELA): 105%
[15]
  Extension of the lifespan: 65%
  Maximum tumor growth inhibition: 80%
  Tumor growth inhibition: 80% and 68% and 57%
[16]; RL-67, G-60, G-61, G-22c, Ca-755, S-37, AKATOL, AKATON
  reaction with receptors of glucocorticoids in grafted tumors: reacts with receptors of glucocorticoids in grafted tumors of animals
[16]; tumors of animals
  inhibition of specific combining of [^3 H]-dexamethazone: 70-100%
[17]; degree depends on the dose
  limiting toxicity: gastroenteral and neurotoxicity (diarrhea, vomition, convulsions)
[17]; mouse, in vivo
  hematotoxicity: does not restrict the administration
[18]
  Maximum tumor growth inhibition: 59%
[19]
  Maximum tumor growth inhibition: 81%
[19]; 15 mg/kg
  Extension of the lifespan: 38%
  Tumor growth inhibition: 76% and 56% and 39%
[19]; 45 mg/kg
  Maximum tumor growth inhibition: 90%
[20]; 45 mg/kg × 1, day 10
  Extension of the lifespan: 57%
[20]; 45 mg/kg × 1, day 10, day 15 of experiment
  Tumor growth inhibition: 80%
[20]; 45 mg/kg × 1, day 10, day 22 of experiment
  Tumor growth inhibition: 53%
[20]; 45 mg/kg × 1, day 10, day 29 of experiment
  Tumor growth inhibition: 61%
[21]
  Kd: 95 nM
[21]; [^3 H]-dexamethazone
  interaction with cytoplasmatic receptors of glucocorticoids: interacts with cytoplasmatic receptors of glucocorticoids and inhibits combining of [^3 H]-dexamethazone therewith
